From ChEMBL document CHEMBL1201862, “PubChem BioAssay data set” (2004)
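Where inhibition never reached the appropriate level, the endpoint shown equals the highest concentration tested. Otherwise, values were interpolated linearly from a five-concentration, 48-hour dose response in 96-well plates. Here, GI50 denotes the concentration required for 50% inhibition of growth.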 The source made the active and inactive calls. Rule as the data show it: active = GI50 up to about 1.1 µM and inactive = higher.

Experiments:
Assay in all cases: NCI tumour cell line growth inhibition, 48 h
[1] = tested on: SF-539
[2] = tested on: HCC 2998
[3] = tested on: K562
[4] = tested on: UO-31
[5] = tested on: MCF7
[6] = tested on: LOX IMVI
[7] = tested on: SNB-75
[8] = tested on: T47D
[9] = tested on: SW-620
[10] = tested on: SK-MEL-2
[11] = tested on: CCRF-CEM
[12] = tested on: Hs-578T
[13] = tested on: SF-295
[14] = tested on: SN12C
[15] = tested on: NCI/ADR-RES
[16] = tested on: OVCAR-3
[17] = tested on: MOLT-4
[18] = tested on: HOP-92
[19] = tested on: KM12
[20] = tested on: EKVX
[21] = tested on: BT-549
[22] = tested on: DU-145
[23] = tested on: SK-MEL-28
[24] = tested on: IGROV-1
[25] = tested on: UACC-62
[26] = tested on: CAKI-1
[27] = tested on: HCT-15
[28] = tested on: HCT-116
[29] = tested on: A549
[30] = tested on: 786-0
[31] = tested on: MDA-MB-231
[32] = tested on: MDA-MB-435
[33] = tested on: PC-3
[34] = tested on: OVCAR-5
[35] = tested on: NCI-H23
[36] = tested on: COLO 205
[37] = tested on: SF-268
[38] = tested on: SK-OV-3
[39] = tested on: M14
[40] = tested on: HT-29
[41] = tested on: MDA-N
[42] = tested on: RXF 393
[43] = tested on: SNB-19
[44] = tested on: TK-10
[45] = tested on: ACHN
[46] = tested on: OVCAR-8
[47] = tested on: NCI-H522
[48] = tested on: NCI-H460
[49] = tested on: OVCAR-4
[50] = tested on: UACC-257
[51] = tested on: U-251
[52] = tested on: Malme-3M
[53] = tested on: SK-MEL-5
[54] = tested on: HOP-62
[55] = tested on: NCI-H226
[56] = tested on: A498

In the case of `COc1cc(-c2coc3c(OC)c(OC4OC(COC5OC(C)C(O)C(O)C5O)C(O)C(O)C4O)c(OC)c(O)c3c2=O)cc(C)c1O` (centres undefined), the GI50 [1] is reported as 21.3 µM (inactive), the GI50 [2] is reported as 16.1 µM (inactive) and the GI50 [3] is reported as 13.4 µM (inactive). The GI50 [4] was 16.6 µM (inactive), the GI50 [5] was 12.3 µM (inactive) and the GI50 [6] was 16.5 µM (inactive). For the same compound, the GI50 [7] was 16 µM (inactive), the GI50 [8] was 15.5 µM (inactive) and the GI50 [9] was 12.7 µM (inactive). For the same compound, the GI50 [10] was 23.8 µM (inactive), the GI50 [11] was 5.93 µM (inactive) and the GI50 [12] was 20.7 µM (inactive). For the same compound, the GI50 [13] was 16.6 µM (inactive), the GI50 [14] was 1.68 µM (inactive) and the GI50 [15] was 17.9 µM (inactive). For the same compound, the GI50 [16] was 13.7 µM (inactive), the GI50 [17] was 3.73 µM (inactive) and the GI50 [18] was 19.2 µM (inactive). The GI50 [19] was 11.7 µM (inactive), the GI50 [20] was 17.2 µM (inactive) and the GI50 [21] was 13.9 µM (inactive). For the same compound, the GI50 [22] was 19.6 µM (inactive), the GI50 [23] was 15.1 µM (inactive) and the GI50 [24] was 17 µM (inactive). For the same compound, the GI50 [25] was 14.3 µM (inactive), the GI50 [26] was 18 µM (inactive) and the GI50 [27] was 16.4 µM. For the same compound, the GI50 [28] was 0.185 µM (active), the GI50 [29] was 23.8 µM (inactive) and the GI50 [30] was 0.178 µM (active). The GI50 [31] was 32.5 µM (inactive), the GI50 [32] was 16 µM (inactive) and the GI50 [33] was 24.8 µM (inactive). For the same compound, the GI50 [34] was 21.7 µM (inactive), the GI50 [35] was 13.1 µM (inactive) and the GI50 [36] was 19.6 µM (inactive). For the same compound, the GI50 [37] was 19.4 µM (inactive), the GI50 [38] was 16.8 µM (inactive) and the GI50 [39] was 15.5 µM (inactive). The GI50 [40] was 19.5 µM (inactive), the GI50 [41] was 0.873 µM (active) and the GI50 [42] was 13 µM (inactive). For the same compound, the GI50 [43] was 13.8 µM (inactive), the GI50 [44] was 34.8 µM (inactive) and the GI50 [45] was 21.2 µM (inactive). For the same compound, the GI50 [46] was 23.6 µM (inactive), the GI50 [47] was 12.7 µM (inactive) and the GI50 [48] was 23.2 µM (inactive). For the same compound, the GI50 [49] was 18.9 µM (inactive), the GI50 [50] was 22.3 µM (inactive) and the GI50 [51] was 15.5 µM (inactive). The GI50 [52] was 18.3 µM (inactive), the GI50 [53] was 12.6 µM (inactive) and the GI50 [54] was 22.1 µM (inactive).

For `O=C(O)c1cc(NCc2cc(O)ccc2O)ccc1O` [LAVENDUSTIN C], the GI50 [1] was > 100 µM (inactive), the GI50 [2] was > 100 µM (inactive) and the GI50 [4] was 67.1 µM (inactive). The GI50 [5] was > 100 µM (inactive), the GI50 [7] was > 100 µM (inactive) and the GI50 [8] was 35.6 µM (inactive). The GI50 [9] was 23.8 µM (inactive), the GI50 [10] was > 100 µM (inactive) and the GI50 [11] was 10.6 µM (inactive). For the same compound, the GI50 [12] was > 100 µM (inactive), the GI50 [13] was > 100 µM (inactive) and the GI50 [55] was > 100 µM (inactive). The GI50 [56] was > 100 µM (inactive), the GI50 [14] was > 100 µM (inactive) and the GI50 [15] was > 100 µM (inactive). The GI50 [16] was > 100 µM (inactive), the GI50 [18] was > 100 µM (inactive) and the GI50 [19] was > 100 µM (inactive). The GI50 [20] was > 100 µM (inactive), the GI50 [21] was > 100 µM (inactive) and the GI50 [22] was > 100 µM (inactive). The GI50 [23] was > 100 µM (inactive), the GI50 [24] was > 100 µM (inactive) and the GI50 [25] was > 100 µM (inactive). The GI50 [26] was > 100 µM (inactive), the GI50 [27] was greater than 100 µM and the GI50 [28] was 49.9 µM (inactive). For the same compound, the GI50 [29] was > 100 µM (inactive), the GI50 [30] was 45.3 µM (inactive) and the GI50 [31] was > 100 µM (inactive). The GI50 [32] was 27 µM (inactive), the GI50 [33] was > 100 µM (inactive) and the GI50 [34] was > 100 µM (inactive). For the same compound, the GI50 [35] was > 100 µM (inactive), the GI50 [36] was > 100 µM (inactive) and the GI50 [37] was > 100 µM (inactive). For the same compound, the GI50 [38] was > 100 µM (inactive), the GI50 [40] was > 100 µM (inactive) and the GI50 [41] was 24.8 µM (inactive). For the same compound, the GI50 [42] was > 100 µM (inactive), the GI50 [43] was > 100 µM (inactive) and the GI50 [44] was > 100 µM (inactive). For the same compound, the GI50 [45] was > 100 µM (inactive), the GI50 [47] was 16.2 µM (inactive) and the GI50 [48] was > 100 µM (inactive). The GI50 [49] was > 100 µM (inactive), the GI50 [50] was > 100 µM (inactive) and the GI50 [51] was > 100 µM (inactive). The GI50 [53] was > 100 µM (inactive) and the GI50 [54] was > 100 µM (inactive).
